Source: patent US6737383B1, “Herbicidal oxadiazolidines” (priority 1999, dated 2004)

Columns and labels:
blackgrass = experiment: Test E blackgrass; assay type: in vivo, Alopecurus myosuroides; details: Preemergence
winter wheat [1] = experiment: Test E winter wheat; assay type: in vivo, Triticum aestivum; details: Preemergence
winter wheat [2] = experiment: Test E winter wheat; assay type: in vivo, Triticum aestivum; details: Postemergence
Outline: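 Greenhouse test: for postemergence, foliar application at 1- to 4-leaf stage; compound in non-phytotoxic solvent with surfactant. Rating is visual, relative to untreated controls, about 21 to 28 days after treatment.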

soybean = experiment: Test B pre/postemergence soybean; assay type: in vivo, Glycine max
Outline: (§1)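 Herbicidal effect was estimated by eye on a ten-point control scale after plants spent twelve to sixteen days in a greenhouse following soil or foliar treatment. Foliar sprays targeted plants at one to four leaves; all doses were formulated in a non-phytotoxic solvent with surfactant.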

smallflower flatsedge = experiment: Test B flood test smallflower flatsedge; assay type: in vivo, Cyperus difformis
Outline: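 Read-out is a visual response score from 0 (no effect) to 10 (complete control), assigned by comparison with untreated controls. Treatment was applied at the 2-leaf stage, and plants stayed in the greenhouse for twelve to sixteen days before scoring.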

wild oat = experiment: Test E wild oat; assay type: in vivo, Avena fatua; details: Preemergence
green foxtail = experiment: Test E green foxtail; assay type: in vivo, Setaria viridis; details: Preemergence
corn = experiment: Test B pre/postemergence corn; assay type: in vivo, Zea mays
Outline: as §1

winter barley = experiment: Test E winter barley; assay type: in vivo, Hordeum vulgare; details: Preemergence
rape = experiment: Test B pre/postemergence rape; assay type: in vivo, Brassica napus
Outline: as §1

Italian ryegrass = experiment: Test E Italian ryegrass; assay type: in vivo, Lolium multiflorum; details: Preemergence
[3] = Rate 1000 g/ha, 0 to 100 scale, 0 no effect, 100 complete control
[4] = Rate 500 g/ha, 0 to 100 scale (0 no effect, 100 complete control)
[5] = Rate 1000 g/ha, 0 to 100 scale where 0 is no effect and 100 is complete control
[6] = Rate 250 g/ha, 0 to 100 scale where 0 is no effect and 100 is complete control
[7] = Rate 500 g/ha, 0 to 100 scale, 0 is no effect, 100 is complete control
[8] = Preemergence, Rate 62 g/ha, scale of 0 to 10 where 0 is no effect and 10 is complete control
[9] = Preemergence, Rate 250 g/ha, scale of 0 to 10 where 0 is no effect and 10 is complete control
[10] = Preemergence, Rate 500 g/ha, scale of 0 to 10 where 0 is no effect and 10 is complete control
[11] = Rate 62 g/ha, Postemergence, scale 0 to 10 (0 no effect, 10 complete control)
[12] = Rate 125 g/ha, Preemergence, scale of 0 to 10 where 0 is no effect and 10 is complete control
[13] = Rate 250 g/ha, Postemergence, scale of 0 to 10 where 0 is no effect and 10 is complete control
[14] = Rate 500 g/ha, Postemergence, scale 0 to 10, 0 no effect, 10 complete control
[15] = Rate 62 g/ha, headed Pre-emergence (flood test species), scale 0 to 10 (0 no effect, 10 complete control)
[16] = Rate 125 g/ha, Pre-emergence, flood test species, scale 0 to 10 where 0 is no effect and 10 is complete control
[17] = Rate 250 g/ha, Pre-emergence, flood-test species, scale 0 to 10, 0 is no effect, 10 is complete control
[18] = Rate 500 g/ha, Pre-emergence, flood test species, scale 0 to 10 (0 no effect, 10 complete control)
[19] = Rate 125 g/ha, Postemergence, scale of 0 to 10 where 0 is no effect and 10 is complete control
[20] = Postemergence, Rate 31 g/ha, visual rating, scale 0 to 10 (0 no effect, 10 complete control)
[21] = Preemergence, Rate 31 g/ha, visual rating, scale 0 to 10 (0 no effect, 10 complete control)
[22] = Rate 16 g/ha, Postemergence, scale 0 to 10, 0 no effect, 10 complete control
[23] = Rate 16 g/ha, Preemergence, scale 0 to 10, 0 no effect, 10 complete control

CC1Cc2cccc(-n3c(=O)on(C(=O)N(c4ccc(F)cc4)C(C)C)c3=O)c2O1 (stereo not shown) [Compound 281]
Blackgrass plant response rating (0 to 100 scale) (blackgrass; Rate 250 g/ha): 50
Plant response rating, Blackgrass (blackgrass; [3]): 50
Wheat (winter) plant response rating (0 to 100 scale) (winter wheat [1]; Rate 250 g/ha): 60
Plant response rating, Wheat (winter) (winter wheat [1]; [4]): 65
Plant response rating, Wheat (winter) (winter wheat [1]; [3]): 80
Plant response rating, Wheat (winter) (winter wheat [2]; [5]): 80
Wheat (winter) plant response rating (winter wheat [2]; [6]): 55
Plant response rating, Wheat (winter) (winter wheat [2]; [7]): 70
Soybean plant response rating (soybean; [8]): 0
Soybean plant response rating (soybean; [9]): 0
Plant response rating, Soybean (soybean; [10]): 0
Soybean plant response rating (soybean; [11]): 2
Soybean plant response rating (soybean; [12]): 0
Plant response rating, Soybean (soybean; [13]): 3
Soybean plant response rating (soybean; [14]): 3
S. Flatsedge plant response rating (smallflower flatsedge; [15]): 0
S. Flatsedge plant response rating (smallflower flatsedge; [16]): 0
S. Flatsedge plant response rating (smallflower flatsedge; [17]): 0
S. Flatsedge plant response rating (smallflower flatsedge; [18]): 0
Wild oat plant response rating (0 to 100 scale) (wild oat; Rate 250 g/ha): 70
Plant response rating, Wild oat (wild oat; [4]): 65
Plant response rating, Wild oat (wild oat; [3]): 80
Green foxtail plant response rating (0 to 100 scale) (green foxtail; Rate 250 g/ha): 100
Plant response rating, Green foxtail (green foxtail; [4]): 100
Plant response rating, Green foxtail (green foxtail; [3]): 100
Corn plant response rating (corn; [8]): 0
Corn plant response rating (corn; [9]): 0
Plant response rating, Corn (corn; [10]): 0
Corn plant response rating (corn; [11]): 0
Corn plant response rating (corn; [19]): 0
Corn plant response rating (corn; [12]): 0
Plant response rating, Corn (corn; [13]): 0
Corn plant response rating (corn; [14]): 0
Barley (winter) plant response rating (0 to 100 scale) (winter barley; Rate 250 g/ha): 70
Plant response rating, Barley (winter) (winter barley; [4]): 70
Plant response rating, Barley (winter) (winter barley; [3]): 80
Rape plant response rating (rape; [8]): 0
Rape plant response rating (rape; [9]): 0
Plant response rating, Rape (rape; [10]): 0
Rape plant response rating (rape; [11]): 0
Rape plant response rating (rape; [19]): 0
Rape plant response rating (rape; [12]): 0
Plant response rating, Rape (rape; [13]): 0
Rape plant response rating (rape; [14]): 0
I. Ryegrass plant response rating (0 to 100 scale) (Italian ryegrass; Rate 250 g/ha): 60
Plant response rating, I. Ryegrass (Italian ryegrass; [4]): 60
Plant response rating, I. Ryegrass (Italian ryegrass; [3]): 60

C=CCCCn1c(=O)on(C(=O)N(c2ccc(F)cc2)C(C)C)c1=O [Compound 291]
Blackgrass plant response rating (0 to 100 scale) (blackgrass; Rate 250 g/ha): 30
Plant response rating, Blackgrass (blackgrass; [4]): 40
Plant response rating, Blackgrass (blackgrass; [3]): 50
Wheat (winter) plant response rating (0 to 100 scale) (winter wheat [1]; Rate 250 g/ha): 35
Plant response rating, Wheat (winter) (winter wheat [1]; [4]): 50
Plant response rating, Wheat (winter) (winter wheat [1]; [3]): 60
Plant response rating, Wheat (winter) (winter wheat [2]; [5]): 55
Wheat (winter) plant response rating (winter wheat [2]; [6]): 30
Plant response rating, Wheat (winter) (winter wheat [2]; [7]): 40
Soybean plant response rating (soybean; [20]): 1
Soybean plant response rating (soybean; [21]): 0
Soybean plant response rating (soybean; [8]): 0
Soybean plant response rating (soybean; [22]): 1
Soybean plant response rating (soybean; [23]): 0
Soybean plant response rating (soybean; [11]): 1
Soybean plant response rating (soybean; [19]): 3
Soybean plant response rating (soybean; [12]): 0
S. Flatsedge plant response rating (smallflower flatsedge; Rate 16 g/ha, head printed Pre-emergence (flood test species), scale 0 to 10, 0 no effect, 10 complete control): 0
S. Flatsedge plant response rating (smallflower flatsedge; Rate 31 g/ha, Pre-emergence section (flood test species), scale 0 to 10): 0
S. Flatsedge plant response rating (smallflower flatsedge; [15]): 0
S. Flatsedge plant response rating (smallflower flatsedge; [16]): 0
S. Flatsedge plant response rating (smallflower flatsedge; [17]): 0
S. Flatsedge plant response rating (smallflower flatsedge; [18]): 0
Wild oat plant response rating (0 to 100 scale) (wild oat; Rate 250 g/ha): 20
Plant response rating, Wild oat (wild oat; [4]): 50
Plant response rating, Wild oat (wild oat; [3]): 60
Green foxtail plant response rating (0 to 100 scale) (green foxtail; Rate 250 g/ha): 55
Plant response rating, Green foxtail (green foxtail; [4]): 85
Plant response rating, Green foxtail (green foxtail; [3]): 100
Corn plant response rating (corn; [20]): 0
Corn plant response rating (corn; [21]): 0
Corn plant response rating (corn; [8]): 0
Corn plant response rating (corn; [22]): 0
Corn plant response rating (corn; [23]): 0
Corn plant response rating (corn; [11]): 0
Corn plant response rating (corn; [19]): 0
Corn plant response rating (corn; [12]): 0
Barley (winter) plant response rating (0 to 100 scale) (winter barley; Rate 250 g/ha): 10
Plant response rating, Barley (winter) (winter barley; [4]): 30
Plant response rating, Barley (winter) (winter barley; [3]): 20
Rape plant response rating (rape; [20]): 0
Rape plant response rating (rape; [21]): 0
Rape plant response rating (rape; [8]): 0
Rape plant response rating (rape; [22]): 0
Rape plant response rating (rape; [23]): 0
Rape plant response rating (rape; [11]): 0
Rape plant response rating (rape; [19]): 1
Rape plant response rating (rape; [12]): 0
I. Ryegrass plant response rating (0 to 100 scale) (Italian ryegrass; Rate 250 g/ha): 70
Plant response rating, I. Ryegrass (Italian ryegrass; [4]): 100
Plant response rating, I. Ryegrass (Italian ryegrass; [3]): 90

CCN(C(=O)n1oc(=O)n(C(C)C)c1=O)C1CCCCC1 [Compound 309]
Plant response rating, Blackgrass (blackgrass; Rate 250 g/ha, 0 to 100 scale): 60
Plant response rating, Blackgrass (blackgrass; [4]): 60
Plant response rating, Blackgrass (blackgrass; [3]): 75
Plant response rating, Wheat (winter) (winter wheat [1]; Rate 250 g/ha, 0 to 100 scale): 70
Plant response rating, Wheat (winter) (winter wheat [1]; [4]): 65
Plant response rating, Wheat (winter) (winter wheat [1]; [3]): 70
Plant response rating, Wheat (winter) (winter wheat [2]; Rate 250 g/ha, 0 to 100 scale, 0 is no effect, 100 is complete control): 50
Plant response rating, Wheat (winter) (winter wheat [2]; [5]): 80
Plant response rating, Wheat (winter) (winter wheat [2]; [7]): 70
Soybean plant response rating (soybean; [8]): 0
Soybean plant response rating (0 to 10 scale) (soybean; Preemergence, Rate 125 g/ha): 0
Soybean plant response rating (soybean; [9]): 0
Soybean plant response rating (soybean; [10]): 0
Soybean plant response rating (soybean; [11]): 2
Soybean plant response rating (soybean; [19]): 2
Plant response rating, Soybean (soybean; [13]): 2
S. Flatsedge plant response rating (smallflower flatsedge; Pre-emergence, Rate 1000 g/ha, scale 0 to 10 (0 no effect, 10 complete control)): 0
S. Flatsedge plant response rating (smallflower flatsedge; [16]): 0
S. Flatsedge plant response rating (smallflower flatsedge; [17]): 0
S. Flatsedge plant response rating (smallflower flatsedge; [18]): 0
Plant response rating, Wild oat (wild oat; Rate 250 g/ha, 0 to 100 scale): 50
Plant response rating, Wild oat (wild oat; [4]): 50
Plant response rating, Wild oat (wild oat; [3]): 70
Plant response rating, Green foxtail (green foxtail; Rate 250 g/ha, 0 to 100 scale): 65
Plant response rating, Green foxtail (green foxtail; [4]): 100
Plant response rating, Green foxtail (green foxtail; [3]): 100
Corn plant response rating (corn; [8]): 0
Corn plant response rating (0 to 10 scale) (corn; Preemergence, Rate 125 g/ha): 0
Corn plant response rating (corn; [9]): 2
Corn plant response rating (corn; [10]): 4
Corn plant response rating (corn; [11]): 0
Corn plant response rating (corn; [19]): 0
Plant response rating, Corn (corn; [13]): 0
Corn plant response rating (corn; [14]): 0
Plant response rating, Barley (winter) (winter barley; Rate 250 g/ha, 0 to 100 scale, 0 no effect, 100 complete control): 50
Plant response rating, Barley (winter) (winter barley; [4]): 20
Plant response rating, Barley (winter) (winter barley; [3]): 70
Rape plant response rating (rape; [8]): 0
Rape plant response rating (0 to 10 scale) (rape; Preemergence, Rate 125 g/ha): 0
Rape plant response rating (rape; [9]): 0
Rape plant response rating (rape; [10]): 0
Rape plant response rating (rape; [11]): 0
Rape plant response rating (rape; [19]): 0
Plant response rating, Rape (rape; [13]): 0
Plant response rating, I. Ryegrass (Italian ryegrass; Rate 250 g/ha, 0 to 100 scale): 50
Plant response rating, I. Ryegrass (Italian ryegrass; [4]): 60
Plant response rating, I. Ryegrass (Italian ryegrass; [3]): 70
